Source: paper PMC5684143, “New melanocortin-like peptide of E. coli can suppress inflammation via the mammalian melanocortin-1 receptor (MC1R): possible endocrine-like function for microbes of the gut” (NPJ Biofilms and Microbiomes, 2017)

Experiments:
RAW 264.7 cells [1] = test: Poly I:C-induced TNF release by RAW 264.7 cells; format: cell-based, murine; conditions: peptide 10^−15 to 10^−9 M; reduced effects above that
Experimental: Murine macrophage-like RAW 264.7 cells were obtained from American Type Culture Collection, and were grown in Dulbecco’s Modified Eagle’s Medium (DMEM, Life Technologies) containing 10% (vol/vol) heat-inactivated fetal bovine serum (FBS, Hyclone Lab. Inc.), penicillin 100 U/ml, and streptomycin 100 μg/ml (BioWhittaker Inc.). Cells were suspended in medium and incubated in 24-well or 48-well tissue-culture plates overnight in a humidified incubator (37 °C, 5% CO2). Growth medium was removed and replaced by Opti-MEM I serum-free medium (Life Technologies) overnight. In the experiments, cell monolayers were stimulated with HMGB1 or LPS, in the absence or presence of MECO-1 or alpha-MSH; cell-free supernatants were assayed for TNF by ELISA or HMGB1 by western blotting.
Concentrations of TNF and IL-6 were each determined using a commercially available enzyme-linked immunosorbent assay (ELISA) kit (R&D System Inc.) as previously described.[34] The levels of TNF or IL-6 were calculated with reference to standard curves.
Fig. 2 Cytokine-induced TNF release inhibited by MECO-1. a Lipopolysaccharide (LPS), derived from the cell wall of Gram-negative bacteria, is a TLR4 and TLR2 agonist. RAW 264.7 cells were treated with MECO-1 and LPS simultaneously and incubated overnight. Supernatants were tested for TNF with ELISA. b Poly I:C, synthetic double stranded RNA, is recognized by TLR3. […]

RAW 264.7 cells [2] = test: LPS-induced HMGB1 release by RAW 264.7 cells (western blot); format: cell-based, murine; conditions: LPS 100 ng/ml, peptide 10^-10 M, 16-20 hrs, four independent experiments, P < 0.01
Experimental: Murine macrophage-like RAW 264.7 cells were obtained from American Type Culture Collection, and were grown in Dulbecco’s Modified Eagle’s Medium (DMEM, Life Technologies) containing 10% (vol/vol) heat-inactivated fetal bovine serum (FBS, Hyclone Lab. Inc.), penicillin 100 U/ml, and streptomycin 100 μg/ml (BioWhittaker Inc.). Cells were suspended in medium and incubated in 24-well or 48-well tissue-culture plates overnight in a humidified incubator (37 °C, 5% CO2). Growth medium was removed and replaced by Opti-MEM I serum-free medium (Life Technologies) overnight. […]
The levels of HMGB1 in the culture medium or murine serum were measured by western immunoblotting as previously described.[30] […] The relative band intensity was quantified by using the NIH image 1.59 software. The levels of HMGB1 (expressed as % maximum effect) were calculated with reference to standard curves generated with purified rHMGB1 and expressed as mean ± SEM of four experiments.
Murine macrophage-like RAW 264.7 cells were incubated with LPS (100 ng/ml) in the absence or presence of MECO-1 or alpha-MSH at 10^-10 M. At 16-20 hrs after stimulation, aliquots of cell-free medium were examined. HMGB1 levels in the (conditioned) culture medium were expressed as mean ± SEM of four independent experiments with the peak level (obtained with LPS) set at 100%. […]

Balb/C mice = test: Cecal ligation and puncture (CLP) polymicrobial sepsis, survival (protocol A); format: in vivo
Experimental: In vivo studies were performed in accordance with National Institutes of Health guidelines and with the approval of the North Shore-Long Island Jewish Health System’s Institutional Animal Care and Use Committee (IACUC). In mice, polymicrobial sepsis was induced by surgical ligation and perforation of the cecum, a widely used technique known as CLP. Briefly, male BALB/c mice (7–8 weeks old, 20–25 g) were anesthetized with a mixture of ketamine (100 mg/kg) and xylazine (8 mg/kg) intramuscularly, and a 15 mm midline incision was made to expose the cecum. After ligation of the cecum with a 6.0 silk suture below the junction of the ileo–cecal valve, the ligated cecal stump was perforated once with a 22-gauge needle. […] Survival was monitored twice daily for 2 weeks, at which time survivors were killed (CO2 asphyxia). […] Survival was monitored twice daily after surgery. […]
Kaplan–Meier analysis was used to determine statistical significance of the differences in survival of mice. p ≦ 0.05 was considered significant. Values in the figures were expressed as mean(±)S.E.M. of two or three independent experiments, where each experimental point was derived from duplicates or triplicates. […]
Fig. 6 MECO-1 rescues mice from lethal sepsis. a Endotoxin. […] Survival was monitored daily for 2 weeks. […] Animals were monitored for survival for 14 days. […]

## alpha-melanocyte-stimulating hormone [alpha-MSH]
RAW 264.7 cells [1]
  inhibition of Poly I:C-induced TNF release: up to 90%
RAW 264.7 cells [2]
  LPS-induced HMGB-1 secretion: markedly reduced
Balb/C mice; 5 mg/kg (high dose) i.p. twice daily, six doses starting 24 h post-surgery, n = 10, saline 15%
  survival at day 14 after CLP: around 50%
Balb/C mice; three experiments pooled, untreated 23% (9 of 39), alpha-MSH 15 of 22, MECO-1 42 of 64
  overall survival after CLP polymicrobial sepsis: 68%
